Measured values from ChEMBL document CHEMBL4477224, “Antidiabetic effect, antioxidant activity, and toxicity of 3',4'-Di-O-acetyl-cis-khellactone in Streptozotocin-induced diabetic rats” (Bioorg Med Chem Lett, 2016).
Activity calls are given as the source filed them. The rule behind the calls is not given here.

Experiments:
[1] = Mutagenicity in Salmonella typhimurium TA100 assessed as mutagenic index at 34.60 uM/plate after 48 hrs in absence of S9 fraction by Ames test relative to control; format: toxicity; conditions: salmonella enterica subsp. enterica serovar typhimurium, s9, 48 h, 34.6 µM
[2] = Mutagenicity in Salmonella typhimurium TA98 assessed as mutagenic index at 17.30 uM/plate after 48 hrs in absence of S9 fraction by Ames test relative to control; format: toxicity; conditions: salmonella enterica subsp. enterica serovar typhimurium, s9, 48 h, 17.3 µM
[3] = Mutagenicity in Salmonella typhimurium TA102 assessed as mutagenic index at 100 uM/plate after 48 hrs in absence of S9 fraction by Ames test relative to control; format: toxicity; conditions: salmonella enterica subsp. enterica serovar typhimurium, s9, 48 h
[4] = Mutagenicity in Salmonella typhimurium TA98 assessed as mutagenic index at 50 uM/plate after 48 hrs in presence of S9 fraction by Ames test relative to control; format: toxicity, subcellular; conditions: salmonella enterica subsp. enterica serovar typhimurium, s9, 48 h
Rattus norvegicus [5] = test: Antidiabetic activity in STZ-induced diabetic Wistar rat assessed as effect on hepatocytes surrounding central vein architecture at 15 mg/kg, po administered for 15 days by hematoxylin/eosin staining based microscopy; format: functional, organism-based
[6] = Mutagenicity in Salmonella typhimurium TA98 assessed as mutagenic index at 17.30 uM/plate after 48 hrs in presence of S9 fraction by Ames test relative to control; format: toxicity, subcellular; conditions: salmonella enterica subsp. enterica serovar typhimurium, s9, 48 h, 17.3 µM
Rattus norvegicus [7] = test: Antidiabetic activity in STZ-induced diabetic Wistar rat assessed as body weight at 15 mg/kg, po administered on day 7 post STZ challenge measured immediately post dosage (reference value: 319.4 +/- 6.9 g); format: functional
Rattus norvegicus [8] = test: Antidiabetic activity in STZ-induced diabetic Wistar rat blood assessed as cholesterol level at 15 mg/kg, po administered for 15 days (reference value: 80.09 +/- 9.35 mg/dl); format: functional
Rattus norvegicus [9] = test: Antioxidant activity in STZ-induced diabetic Wistar rat liver assessed as catalase level measured as H2O2 consumption per mg of protein at 15 mg/kg, po administered for 15 days (reference value: 68.9 +/- 11.1 microM/min); format: functional
[10] = Mutagenicity in Salmonella typhimurium TA102 assessed as mutagenic index at 34.60 uM/plate after 48 hrs in absence of S9 fraction by Ames test relative to control; format: toxicity; conditions: salmonella enterica subsp. enterica serovar typhimurium, s9, 48 h, 34.6 µM
Rattus norvegicus [11] = test: Antidiabetic activity in STZ-induced diabetic Wistar rat assessed as decrease in blood glucose level at 15 mg/kg, po administered for 15 days post STZ challenge measured on day 21 by glucometry relative to control; format: functional; design: scale not given: the % may be the effect or the level left
Rattus norvegicus [12] = test: Antidiabetic activity in STZ-induced diabetic Wistar rat blood assessed as creatinine level at 15 mg/kg, po administered for 15 days (reference value: 0.56 +/- 0.03 mg/dl); format: functional
Rattus norvegicus [13] = test: Antidiabetic activity in STZ-induced diabetic Wistar rat assessed as effect on islets of langerhans morphology at 15 mg/kg, po administered for 15 days by fluorescence microscopy; format: functional, organism-based
[14] = Toxicity in STZ-induced diabetic Wistar rat liver assessed as macroscopic pathologic lesions at 15 mg/kg, po administered for 15 days; format: organism-based; conditions: in vivo, 360 h
Rattus norvegicus [15] = test: Antidiabetic activity in STZ-induced diabetic Wistar rat blood assessed as urea level at 15 mg/kg, po administered for 15 days (reference value: 62.98 +/- 6.21 mg/dl); format: functional
[16] = Mutagenicity in Salmonella typhimurium TA98 assessed as mutagenic index at 34.60 uM/plate after 48 hrs in presence of S9 fraction by Ames test relative to control; format: toxicity, subcellular; conditions: salmonella enterica subsp. enterica serovar typhimurium, s9, 48 h, 34.6 µM
[17] = Mutagenicity in Salmonella typhimurium TA102 assessed as mutagenic index at 50 uM/plate after 48 hrs in presence of S9 fraction by Ames test relative to control; format: toxicity, subcellular; conditions: salmonella enterica subsp. enterica serovar typhimurium, s9, 48 h
[18] = Mutagenicity in Salmonella typhimurium TA102 assessed as mutagenic index at 8.65 uM/plate after 48 hrs in presence of S9 fraction by Ames test relative to control; format: toxicity, subcellular; conditions: salmonella enterica subsp. enterica serovar typhimurium, s9, 48 h
[19] = Mutagenicity in Salmonella typhimurium TA102 assessed as mutagenic index at 50 uM/plate after 48 hrs in absence of S9 fraction by Ames test relative to control; format: toxicity; conditions: salmonella enterica subsp. enterica serovar typhimurium, s9, 48 h
[20] = Mutagenicity in Salmonella typhimurium TA98 assessed as mutagenic index at 8.65 uM/plate after 48 hrs in absence of S9 fraction by Ames test relative to control; format: toxicity; conditions: salmonella enterica subsp. enterica serovar typhimurium, s9, 48 h
Rattus norvegicus [21] = test: Antidiabetic activity in STZ-induced diabetic Wistar rat assessed as increase in beta cells at 15 mg/kg, po administered for 15 days by fluorescence microscopy; format: functional, organism-based
[22] = Mutagenicity in Salmonella typhimurium TA100 assessed as mutagenic index at 100 uM/plate after 48 hrs in presence of S9 fraction by Ames test relative to control; format: toxicity, subcellular; conditions: salmonella enterica subsp. enterica serovar typhimurium, s9, 48 h
[23] = Mutagenicity in Salmonella typhimurium TA100 assessed as mutagenic index at 50 uM/plate after 48 hrs in presence of S9 fraction by Ames test relative to control; format: toxicity, subcellular; conditions: salmonella enterica subsp. enterica serovar typhimurium, s9, 48 h
[24] = Mutagenicity in Salmonella typhimurium TA102 assessed as mutagenic index at 100 uM/plate after 48 hrs in presence of S9 fraction by Ames test relative to control; format: toxicity, subcellular; conditions: salmonella enterica subsp. enterica serovar typhimurium, s9, 48 h
Rattus norvegicus [25] = test: Antidiabetic activity in STZ-induced diabetic Wistar rat assessed as change in fasting blood glucose level at 15 mg/kg, po administered for 7 days post STZ challenge measured on day 14 by glucometry (reference value: 72.90 +/- 5.2 mg/dl); format: functional
[26] = Mutagenicity in Salmonella typhimurium TA100 assessed as mutagenic index at 17.30 uM/plate after 48 hrs in presence of S9 fraction by Ames test relative to control; format: toxicity, subcellular; conditions: salmonella enterica subsp. enterica serovar typhimurium, s9, 48 h, 17.3 µM
Rattus norvegicus [27] = test: Antidiabetic activity in STZ-induced diabetic Wistar rat assessed as body weight at 15 mg/kg, po administered for 15 days post STZ challenge measured on day 21 (reference value: 319.4 +/- 6.9 g); format: functional
[28] = Mutagenicity in Salmonella typhimurium TA102 assessed as mutagenic index at 17.30 uM/plate after 48 hrs in absence of S9 fraction by Ames test relative to control; format: toxicity; conditions: salmonella enterica subsp. enterica serovar typhimurium, s9, 48 h, 17.3 µM
[29] = Mutagenicity in Salmonella typhimurium TA100 assessed as mutagenic index at 100 uM/plate after 48 hrs in absence of S9 fraction by Ames test relative to control; format: toxicity; conditions: salmonella enterica subsp. enterica serovar typhimurium, s9, 48 h
[30] = Mutagenicity in Salmonella typhimurium TA98 assessed as mutagenic index at 8.65 uM/plate after 48 hrs in presence of S9 fraction by Ames test relative to control; format: toxicity, subcellular; conditions: salmonella enterica subsp. enterica serovar typhimurium, s9, 48 h
[31] = Toxicity in STZ-induced diabetic Wistar rat kidney assessed as macroscopic pathologic lesions at 15 mg/kg, po administered for 15 days; format: organism-based; conditions: in vivo, 360 h
Rattus norvegicus [32] = test: Antidiabetic activity in STZ-induced diabetic Wistar rat assessed as change in fasting blood glucose level at 15 mg/kg, po administered for 15 days post STZ challenge measured on day 21 by glucometry (reference value: 72.90 +/- 5.2 mg/dl); format: functional
[33] = Acute toxicity in ig dosed BALB/c mouse assessed as mortality measured for 14 days; format: organism-based; conditions: in vivo, po
[34] = Mutagenicity in Salmonella typhimurium TA100 assessed as mutagenic index at 8.65 uM/plate after 48 hrs in absence of S9 fraction by Ames test relative to control; format: toxicity; conditions: salmonella enterica subsp. enterica serovar typhimurium, s9, 48 h
[35] = Mutagenicity in Salmonella typhimurium TA100 assessed as mutagenic index at 8.65 uM/plate after 48 hrs in presence of S9 fraction by Ames test relative to control; format: toxicity, subcellular; conditions: salmonella enterica subsp. enterica serovar typhimurium, s9, 48 h

With `CC(=O)O[C@@H]1c2c(ccc3ccc(=O)oc23)OC(C)(C)[C@@H]1OC(C)=O` (relative stereo) [QUIANHUCOUMARIN D] the Ratio [1] was 1, the Ratio [2] was 1 and the Ratio [3] was 0.8. For the same compound, the Ratio [4] was 1.1, the Activity (Rattus norvegicus [5]) was “Active” and the Ratio [6] was 1.2. For the same compound, the Activity (Rattus norvegicus [7]) was 335.3 g, the Activity (Rattus norvegicus [8]) was 70.84 mg/dL and the Activity (Rattus norvegicus [9]) was 94.8 µM/min. It also gave a Ratio [10] of 1, an Activity (Rattus norvegicus [11]) of 60.9% and an Activity (Rattus norvegicus [12]) of 0.51 mg/dL. For the same compound, the Activity (Rattus norvegicus [13]) was “Active”, the Activity [14] was “Non-Toxic” and the Activity (Rattus norvegicus [15]) was 42.04 mg/dL. For the same compound, the Ratio [16] was 1.2, the Ratio [17] was 1.2 and the Ratio [18] was 0.8. The Ratio [19] was 1.1, the Ratio [20] was 0.7 and the Activity (Rattus norvegicus [21]) was “Active”. For the same compound, the Ratio [22] was 1, the Ratio [23] was 0.9 and the Ratio [24] was 0.9. The Activity (Rattus norvegicus [25]) was 280.7 mg/dL, the Ratio [26] was 0.9 and the Activity (Rattus norvegicus [27]) was 365.1 g. For the same compound, the Ratio [28] was 0.7, the Ratio [29] was 1.4 and the Ratio [30] was 1.1. For the same compound, the Activity [31] was “Non-Toxic”, the Activity (Rattus norvegicus [32]) was 128.3 mg/dL and the LD50 at 336 h [33] was > 2000 mg/kg. The Ratio [34] was 1.3 and the Ratio [35] was 0.9.
